# Source: patent US20240317828A1, “T CELL ACTIVATING IMMUNOTHERAPEUTIC FOR TREATMENT OF MUCIN 1 PROTEIN EXPRESSING HUMAN CANCERS” (PDS BIOTECHNOLOGY CORPORATION, priority 2022, published 2024)
# Where no end group is shown, it is not given here.
# Legend:
# [1] = Aqueous solubility of peptide antigens; conditions: unmodified hydrophobic agonist peptides
# [2] = tested on: MUC1 antigen-specific T cells; test: ELISPOT of MUC1 antigen-specific T cells in spleens of vaccinated HLA-A2 transgenic mice; assay type: in vivo, HLA-A2 expressing transgenic mice (AAD mice); conditions: for antigen strength (immune response): lipidated peptide in the micellar peptide antigen component of the R-DOTAP vaccine; for antigen delivery to dendritic cells and immune cell activation: FIGS. 4 and 5, anionic SSEEDE N-terminal extension, formulated with R-DOTAP nanoparticles and micellar mixture of six lipidated peptides
# Experimental: As illustrated in FIG. 4 HLA-A2 specific CD8 T cell responses to formulations including peptide antigen SSEEDE-C1A (SEQ ID NO:18) and SSEEDE-C2A (SEQ ID NO:19) formulated with R-DOTAP nanoparticles and a micellar mixture with six lipidated peptide agonist antigens, pC3A: (SEQ ID NO:15), pV1A: (SEQ ID NO:2), pV2A: (SEQ ID NO:3), pC5A: (SEQ ID NO:4), pC6A: (SEQ ID NO:5), pP93L: (SEQ ID NO: 16) were evaluated. […] The efficacy of these vaccine formulations in generating T cell responses was measured by dosing HLA-A2 expressing transgenic mice (AAD mice) with two 0.1 ml injections of the vaccine delivered subcutaneously on day 0 and day 7. Negative control groups mice were vaccinated with MUC1 peptides formulated in sucrose buffer. Immune responses specific to vaccine formulation were measured in an ELISPOT assay by enumerating MUC1 antigen-specific T cells, in triplicate wells, in the spleens obtained from vaccinated mice. Each bar in the graph represents the mean SFU per 250,000 splenocytes for a group of vaccinated mice. Error bars represent mean±SEM for five mice in each group. For identifying MUC1-specific T cells, splenocytes were stimulated with peptide sequences C1A (SEQ ID NO:9: YLAIVYLIAL), C2A (SEQ ID NO:10), V1A (SEQ ID NO:13), V2A (SEQ ID NO:14:) C3A (SEQ ID NO:12) and p93L (SEQ ID NO:11)
# As shown in FIG. 5 HLA-A2 specific CD8 T cell responses to formulations including peptide antigen SSEEDE-C1A (SEQ ID NO:9) and SSEEDE-C2A ([…]) formulated with R-DOTAP nanoparticles and a micellar mixture with six lipidated peptide agonist antigens, pC3A: (SEQ ID NO:15), pV1A: (SEQ ID NO:2), pV2A: (SEQ ID NO:3), pC5A: (SEQ ID NO:4), pC6A: (SEQ ID NO:5), pP93L: (SEQ ID NO:16) were assessed. […] The efficacy of these vaccine formulations in generating T cell responses was measured by dosing HLA-A2 expressing transgenic mice (AAD mice) with two 0.1 ml injections of the vaccine delivered subcutaneously on day 0 and day 7. Negative control groups mice were vaccinated with MUC1 peptides formulated in sucrose buffer. Immune responses specific to vaccine formulation were measured in an ELISPOT assay by enumerating MUC1 antigen-specific T cells, in triplicate wells, in the spleens obtained from vaccinated mice. Each bar in the graph represents the mean SFU per 250,000 splenocytes for a group of vaccinated mice. Error bars represent mean±SEM for five mice in each group. For identifying MUC1-specific T cells, splenocytes were stimulated with peptide sequences C1A (SEQ ID NO:9: YLAIVYLIAL), C2A (SEQ ID NO:10), V1A (SEQ ID NO:13), V2A (SEQ ID NO:14) C3A (SEQ ID NO:12) and p93L (SEQ ID NO:11).
# Control peptide antigen formulations were prepared with 0.5 ml of Montanide plus CpG, or “NCI adjuvant” formulation consisting of 50 μg/ml GM-CSF, 20 μg/ml IL-12, 0.8 mg/ml HBV core (128-140) peptide in incomplete Freund's adjuvant. The efficacy of these vaccine formulations in generating T cell responses was measured by dosing HLA-A2 expressing transgenic mice (AAD mice) with two 0.1 ml injections of the vaccine delivered subcutaneously on day 0 and day 7. Control group mice were vaccinated with MUC1 peptides formulated in sucrose buffer alone. Immune responses specific to vaccine formulation were measured in an ELISPOT assay by enumerating MUC1 antigen-specific T cells, in triplicate wells, in the spleens obtained from vaccinated mice. Each data point in the graph represents the mean SFU per 250,000 splenocytes in vaccinated mice. Error bars represent mean±SEM for five mice in each group. For identifying MUC1-specific T cells, splenocytes were stimulated with peptide sequences C1A (SEQ ID NO:9: YLAIVYLIAL).
# Control peptide antigen formulations were prepared with 0.5 ml of Montanide plus CpG, or “NCI adjuvant” formulation consisting of 50 μg/ml GM-CSF, 20 μg/ml IL-12, 0.8 mg/ml HBV core (128-140) peptide in incomplete Freund's adjuvant. […]
# HLA-A2, A3, A11 and A24 = test: MHC-binding specificity of MUC1 peptide antigens (HLA binding / HLA affinity); set-up: species or system human; conditions: agonist sequence; HLA allele the peptide binds; listed as VIA
# Excerpt: Within the human mucin 1 oncoprotein multiple high affinity MHC-binding peptide antigens specific for HLA-A2, A3, A11 and A24 have been identified (Table 1). MHC-binding peptide antigens specific for HLA-A2 have been identified: YLAIVYLIAL (SEQ ID NO:9, C1A), YLIALAVCQV (SEQ ID NO:10, C2A), YLAPPAHGV (SEQ ID NO:13, VIA) and YLDTRPAPV (SEQ ID NO:14, V2A).
# [3] = FIG. 8, long peptide mixed with R-DOTAP
substance,measurement,setting,value
"YLIALAVCQV [C2A, YLIALAVCQV]",aqueous solubility,[1],limited aqueous solubility
"KSS-YLDTRPAPV (not fully specified; lipidated; SITE 1 Epsilon-palmitoyl modified residue) [pV2A, lipidated MUC1 agonist peptide]",antigen strength (immune response),[2]; FIGS. 3 and 7,strong antigens
YLIALAVCQVRRKNYGQLDIFPARDKYHPMSEYAL- [YL35],C2A response,[2]; [3],did not generate a significant C2A response
"YLDTRPAPV (not fully specified) [V2A, MUC1 agonist peptide antigen]",antigen strength (immune response),[2]; FIGS. 3 and 7,strong antigens
"KSS-YLAPPAHGV (not fully specified; lipidated; SITE 1 Epsilon-palmitoyl modified residue) [pV1A, lipidated MUC1 agonist peptide]",antigen strength (immune response),[2]; FIGS. 3 and 7,strong antigens
"SSEEDE-YLIALAVCQV (SSEEDEYLIALAVCQV) [SSEEDE-C2A, C2A with cleavable anionic N-terminal extension SSEEDE]",antigen delivery to dendritic cells and immune cell activation,[2],effective delivery
"SSEEDE-YLAIVYLIAL (SSEEDEYLAIVYLIAL) [SSEEDE-C1A, C1A with cleavable anionic N-terminal extension SSEEDE]",antigen delivery to dendritic cells and immune cell activation,[2],effective delivery
YLAIVYLIAL [C1A],C1A-specific T cell response (immunoactivity),"[2]; FIG. 1, peptide inserted into lipid bilayer of R-DOTAP nanoparticle, two 0.1 ml s.c. injections day 0 and 7, splenocytes stimulated with C1A",effective immunoactivity
same,immune response,"[2]; FIG. 8, short peptides encapsulated (incorporated into the R-DOTAP bilayer)",did generate a significant response
same,immune response,"[2]; FIG. 8, short peptides mixed with R-DOTAP",did not generate a significant response
same,immune response (HLA-A2 specific CD8 T cell),"[2]; FIGS. 3 and 7, peptides inserted into R-DOTAP nanoparticle lipid bilayer, with micellar lipidated V1A/V2A, 3 mg R-DOTAP per ml",strong immune responses
same,generation of immune responses,[2]; peptide included in antigen mixtures mixed/formulated with R-DOTAP nanoparticles (not inserted in bilayer),ordinarily inactive
"YLAPPAHGV (not fully specified) [V1A, MUC1 agonist peptide antigen]",HLA Binding,"HLA-A2, A3, A11 and A24",HLA-A2
same,antigen strength (immune response),[2]; FIGS. 3 and 7,strong antigens
YLAIVYLIALAVCQVRRKNYGQLDIFPARDKYHPMSEYAL [YL40],antigen specific responses to antigens C1A and C2A,"[2]; FIG. 6, long peptide with lipidated peptide micelles and 3 mg R-DOTAP in 1 ml",strong antigen specific responses
same,C1A response (activity),[2]; [3],induces a significant C1A response
same,C1A specific T-cell responses,"[2]; FIGS. 6 and 7, long peptide delivered with R-DOTAP nanoparticles",high level detection
